This note sets out measurements from patent US9126999B2, “Tetrahydropyrazolopyrimidine compounds” (EISAI R&D MANAGEMENT CO., LTD., priority 2012, dated 2015).

The assay concerns the target T1, Human TLR9 (Homo sapiens, UniProt Q9NR96).
T1 sequence (Q9NR96 26-1032): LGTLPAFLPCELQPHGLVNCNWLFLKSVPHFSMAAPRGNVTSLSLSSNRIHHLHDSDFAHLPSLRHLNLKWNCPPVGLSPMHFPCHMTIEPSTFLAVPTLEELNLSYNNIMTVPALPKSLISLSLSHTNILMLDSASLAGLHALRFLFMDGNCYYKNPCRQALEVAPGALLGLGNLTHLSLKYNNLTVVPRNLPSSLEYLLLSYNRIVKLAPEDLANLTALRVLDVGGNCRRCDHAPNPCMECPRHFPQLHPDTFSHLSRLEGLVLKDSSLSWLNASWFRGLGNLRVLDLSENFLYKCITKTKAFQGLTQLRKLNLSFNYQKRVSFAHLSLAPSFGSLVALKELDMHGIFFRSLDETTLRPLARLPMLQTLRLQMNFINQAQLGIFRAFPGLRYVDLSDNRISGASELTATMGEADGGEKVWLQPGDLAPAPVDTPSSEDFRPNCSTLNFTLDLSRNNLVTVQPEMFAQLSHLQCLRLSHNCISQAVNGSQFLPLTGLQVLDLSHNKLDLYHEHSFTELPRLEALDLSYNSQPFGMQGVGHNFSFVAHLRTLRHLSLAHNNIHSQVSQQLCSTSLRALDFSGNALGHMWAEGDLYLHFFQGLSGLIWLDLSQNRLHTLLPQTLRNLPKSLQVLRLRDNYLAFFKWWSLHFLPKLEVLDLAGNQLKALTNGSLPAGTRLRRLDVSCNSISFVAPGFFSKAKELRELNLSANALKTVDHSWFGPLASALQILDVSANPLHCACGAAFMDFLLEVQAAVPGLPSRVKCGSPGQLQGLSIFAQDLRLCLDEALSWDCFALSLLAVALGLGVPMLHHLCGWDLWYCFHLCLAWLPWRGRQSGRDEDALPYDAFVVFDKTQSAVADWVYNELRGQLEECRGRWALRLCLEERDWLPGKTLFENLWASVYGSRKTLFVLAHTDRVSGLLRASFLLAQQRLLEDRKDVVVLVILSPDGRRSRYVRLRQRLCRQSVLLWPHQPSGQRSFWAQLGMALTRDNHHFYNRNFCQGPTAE
Put plainly: Human PBMC cell-based assay, CpG-ODN stimulus, IL-6 ELISA. Further details: endogenous in cells; host or cells: primary human PBMC from healthy donor blood. The conditions noted are these: Hu PBMC; ligand CpG-ODN; analyte IL-6. Here is the method: Human peripheral blood mononuclear cells (PBMC) were isolated from freshly-drawn heparinized (10 USP units/ml, Hospira, Lakeforest, Ill.) healthy donor whole blood by density gradient (Histopaque® 1077, Sigma, Inc., St. Louis, Mo.). Briefly, 25 ml blood was diluted with 15 ml PBS (without Ca^2+, Mg^2+) in a 50 ml conical tube, and 12 ml Histopaque was underlaid using a spinal needle. Tubes were centrifuged for 45 minutes at 1200 rpm (350×g), and PBMC were collected from the buffy coat. Cells were then washed twice in PBS, and red blood cells were lysed by suspension in 5 ml ammonium chloride solution (1× Red Blood Cell Lysis Buffer, eBioscience) for 5 minutes at room temperature. […]
Antagonist compounds solubilized and serial diluted in 100% DMSO were added in triplicate to cells to yield a final concentration of 0.1% DMSO (v/v). […] Cell culture supernatants were collected, and levels of various human cytokines were assessed as indicated by standard ELISA procedure according to the manufacturer's recommended protocol (BD Biosciences, Inc., San Diego, Calif.).
For orientation: An ELISA detects its analyte on a solid surface through an enzyme-linked reagent.

`COc1ccc([C@@H]2C[C@H](C(F)(F)F)n3nc(-c4ccc(C(=O)N5CCNCC5)cc4)cc3N2)cc1OC` [ER-892887, (4-((5S,7R)-5-(3,4-dimethoxyphenyl)-7-(trifluoromethyl)-4,5,6,7-tetrahydropyrazolo[1,5-a]pyrimidin-2-yl)phenyl)(piperazin-1-yl)methanone] had a half-maximal inhibitory concentration (IC50) of over 10 µM.

What is called IC50 is the concentration at which inhibition is half-maximal. Low values mean inhibition by little substance, high ones a need for much substance.
